Experimental data as given in ChEMBL document CHEMBL5050843, “Amide substituted thiazoles as protein secretion inhibitors” (2019).

What was measured:
[1] = Inhibition of constitutively active VCAMss-Gluc secretion in human Flp-In-T-REx-293 cells measured by Gaussia luciferase reporter gene method; assay type: functional, cell-based
[2] = Inhibition of constitutively active PR1ss-Gluc secretion in human Flp-In-T-REx-293 cells measured by Gaussia luciferase reporter gene method; assay type: functional, cell-based

IC50 [1] | IC50 [2] | Structure (SMILES)
5.7 µM | > 80 µM | CC(C)(C)c1csc(NC(=O)Cc2cccs2)n1
> 25 µM | > 25 µM | CC(C)(C)c1csc(NC(=O)c2cc3cc(Br)ccc3s2)n1
16.2 µM | > 25 µM | CC(C)(C)c1csc(NC(=O)c2cc3cc(C4=CCCCC4)ccc3s2)n1
9.27 µM | > 25 µM | CC(C)(C)c1csc(NC(=O)c2cc3cc(Cl)ccc3s2)n1
5.7 µM | > 25 µM | CC(C)(C)c1csc(NC(=O)c2cc3c(Cl)cccc3s2)n1
> 25 µM | > 25 µM | CC(C)(C)c1csc(CNC(=O)Cc2csc3ccccc23)n1
16.5 µM | > 25 µM | CC(C)(C)c1csc(NC(=O)c2cc3cc(C(F)(F)F)ccc3s2)n1
5.02 µM | > 25 µM | CC(C)(C)c1csc(NC(=O)c2cc3cc(-c4cccc(Cl)c4)ccc3s2)n1
> 25 µM | > 25 µM | CC(C)(C)c1csc(NC(=O)Cn2cnc3ccccc32)n1
11 µM | > 25 µM | CC(C)(C)c1csc(NC(=O)c2cc3cc(-c4ccccc4)ccc3s2)n1
> 25 µM | > 25 µM | Cc1cc(C(=O)Nc2nc(C3CC3)cs2)cs1
> 25 µM | > 25 µM | C#Cc1ccc2sc(C(=O)Nc3nc(C(C)(C)C)cs3)cc2c1
11.8 µM | > 25 µM | CC(C)(C)c1nc(NC(=O)Cc2csc3ccc(Cl)cc23)sc1Cl
7.6 µM | > 80 µM | CC(C)(C)c1csc(NC(=O)c2cccc(C(F)(F)F)c2)n1
8.14 µM | > 25 µM | CCCCCc1ccc2sc(C(=O)Nc3nc(C(C)(C)C)cs3)cc2c1
3.22 µM | > 25 µM | CC(C)(C)c1csc(NC(=O)c2cc3cccc(Cl)c3s2)n1
4.97 µM | > 25 µM | CC#Cc1ccc2sc(C(=O)Nc3nc(C(C)(C)C)cs3)cc2c1
> 25 µM | > 25 µM | CC(C)(C)c1csc(NC(=O)COC2CCCCC2)n1

IC50 [1] | IC50 [2] | Structure (SMILES)
14 µM | > 25 µM | CC(C)(C)c1csc(NC(=O)c2cc3cc(-c4ccc(Cl)cc4)ccc3s2)n1
> 80 µM | > 80 µM | Cc1cc(C(=O)Nc2nc(C(C)(C)C)cs2)no1
> 25 µM | > 25 µM | Cc1c(C(=O)Nc2nc(C(C)(C)C)cs2)sc2ccc(Cl)cc12
> 25 µM | > 25 µM | CC(C)(C)c1csc(NC(=O)c2cc3cc(-c4cccnc4)ccc3s2)n1
23.8 µM | > 25 µM | CC(C)(C)c1csc(NC(=O)c2cc3ccccc3o2)n1
14.1 µM | > 25 µM | CCCc1ccc2sc(C(=O)Nc3nc(C(C)(C)C)cs3)cc2c1
2.21 µM | > 25 µM | Cn1c(C(=O)Nc2nc(C(C)(C)C)cs2)cc2ccccc21
> 25 µM | > 25 µM | CC(C)(C)c1csc(NC(=O)c2sc3ccccc3c2Cl)n1
> 25 µM | > 25 µM | CC(C)(C)c1csc(NC(=O)Cn2ncc3ccccc32)n1
> 25 µM | > 25 µM | CC(C)(C)c1csc(NC(=O)c2cc3cc(C(N)=O)ccc3s2)n1
> 25 µM | > 25 µM | CC(C)(C)c1csc(NC(=O)c2cc3ccc(Cl)cc3s2)n1
10.4 µM | > 80 µM | CC(C)(C)c1csc(NC(=O)c2ccccc2)n1
> 25 µM | > 25 µM | CC(C)(C)c1csc(NC(=O)Cc2cccc(S(C)(=O)=O)c2)n1
> 25 µM | > 25 µM | CC(C)(C)c1csc(NC(=O)c2cc3cc(C4CCCC4)ccc3s2)n1
> 25 µM | > 25 µM | CCc1csc(NC(=O)c2csc(C)c2)n1
> 25 µM | > 25 µM | CC(C)(C)c1csc(NC(=O)c2cc3cc(C4=CCCC4)ccc3s2)n1
19.9 µM | > 25 µM | O=C(Cc1csc2ccc(Cl)cc12)Nc1nc(Cc2ccccc2)cs1
